According to patent publication US20090203609A1, “Use of IL-1 inhibitors for treating IL-1 mediated diseases” (AMGEN INC., priority 1996, published 2009):

Columns and labels:
EAE model = test: EAE model, second Example 4 (integrated clinical score, weight gain); assay type: in vivo, Female Strain 13 guinea pigs
adjuvant arthritic rats [1] = test: Adjuvant arthritis model, first Example 4 (rhuIL-1ra 5 mg/kg/hr infusion, methotrexate dose range); assay type: in vivo, Male Lewis rats; conditions: rhuIL-1ra alone
Procedure: (§1) Male Lewis rats (Charles River, Portage, Mich.) (5-7/group) weighing at least 250-300 g were cannulated in the subcutis of the dorsal back and allowed to recover for several days. They were then placed in infusion cages and acclimated for at least 4 days prior to initiating adjuvant injections. On day-0, all rats were injected with 100 μl of Freunds Complete Adjuvant (Sigma Chemical Co., St. […] Body weights were taken on day 0 and every other day from day 8 to termination on day 15. Caliper measurements and clinical scoring were done on day 8 and every other day until termination. At this time the animals' body, paw and spleen weights were determined.

adjuvant arthritic rats [2] = test: Adjuvant arthritis model, Example 3 (rhuIL-1ra subcutaneous infusion, methotrexate dose range); assay type: in vivo, Male Lewis rats; set-up: inhibition of final paw weight: dose or concentration left out as unconfirmed; conditions: rhuIL-1ra alone
Procedure: as §1

adjuvant arthritic rats [3] = test: Adjuvant arthritis model, Example 1 (rhuIL-1ra IV infusion, oral methotrexate); assay type: in vivo, Male Lewis rats; conditions: rhuIL-1ra 5 mg/kg/hr continuous IV infusion from day 8; methotrexate 0.06 mg/kg oral days 0-14; termination day 15
Procedure: Male Lewis rats (Charles River, Portage, Mich.) (5 per group) weighing at least 200 g were cannulated with jugular catheters and allowed to recover for several days. They were then placed in infusion cages and acclimated for a week prior to initiating adjuvant injections. On day 0, all treated rats were injected with 100 μl of Freunds Complete Adjuvant (Sigma Chemical Co., St. […] On day 8, treatment with E. coli-derived human recombinant IL-1 receptor antagonist (prepared generally in accordance with the teachings of U.S. Pat. […] Body weights were taken on day 0 and every other day from day 8 to termination on day 15. Caliper measurements and clinical scoring were done on day 8 and every other day until termination. At this time the animals' body, paw and spleen weights were determined.

adjuvant arthritic rats [4] = test: Adjuvant arthritis model, Example 2 (rhuIL-1ra IV infusion, oral methotrexate); assay type: in vivo, Male Lewis rats; conditions: rhuIL-1ra 5 mg/kg/hr continuous IV infusion from day 8; methotrexate 0.06 mg/kg oral days 0-14; termination day 15
Procedure: as §1, with “200” for “250-300”, “with jugular catheters” for “in the subcutis of the dorsal back”, “one week” for “4 days”

Substance: rhuIL-1ra: E. coli-derived human recombinant IL-1 receptor antagonist (SEQ ID NO:2), in citrate buffer formulation
- attenuation of clinical symptoms/signs (integrated clinical score) (EAE model; rhuIL-1ra 10 mg/kg s.c. 3x a day from day 0, alone or with r-metIFN-con1 0.03 mg/kg s.c.): 49%
- attenuation of clinical symptoms/signs (integrated clinical score) (EAE model; rhuIL-1ra 100 mg/kg s.c. 3x a day from day 0, alone or with r-metIFN-con1 0.03 mg/kg s.c.): 53%
- inhibition of bone resorption, histologic evaluation of ankle joints (adjuvant arthritic rats [1]): 53%
- inhibition of inflammation, histologic evaluation of ankle joints (adjuvant arthritic rats [1]): 8%
- inhibition of swelling, ankle joint diameter over time (area under the curve) (adjuvant arthritic rats [1]; 5 mg/kg/hr infusion): 6%
- inhibition of final paw weight (adjuvant arthritic rats [1]; continuous subcutaneous infusion 5 mg/kg/hr, days 8-15): 6%
- inhibition of bone resorption, histologic evaluation of ankle joints (adjuvant arthritic rats [2]): 53%
- inhibition of inflammation, histologic evaluation of ankle joints (adjuvant arthritic rats [2]): 8%
- inhibition of swelling, ankle joint diameter over time (area under the curve) (adjuvant arthritic rats [2]; 5 mg/ml/hr sc infusion): 6%
- inhibition of final paw weight (adjuvant arthritic rats [2]; continuous subcutaneous infusion, days 8-15): 6%
- inhibition of arthritis (paw swelling) (adjuvant arthritic rats [3]): 57%
- inhibition of body weight change (adjuvant arthritic rats [3]): 25%
- inhibition of splenomegaly (spleen weight) (adjuvant arthritic rats [3]): no significant benefit
- inhibition of body weight change (adjuvant arthritic rats [4]): no inhibition
- inhibition of paw swelling (adjuvant arthritic rats [4]): 22%
- inhibition of splenomegaly (adjuvant arthritic rats [4]): 24%
